# Results taken from patent US20230002377A1, “THERAPEUTIC COMBINATIONS OF DRUGS AND METHODS OF USING THEM” (HARMONY BIOSCIENCES, LLC, priority 2020, published 2023).
# Read-outs that look alike come from different tables or passages of the source.
# How the values were obtained:
# [1] = target: Transporter, Norepinephrine (NET) (Homo sapiens, UniProt P23975); test: NET radioligand binding ([125I] RTI-55), Eurofins; details: read-out: NET, % inhibition, 10 nM compound
# Method: Source: Human recombinant MDCK cells;
# Incubation Time/Temp: 3 hours @ 4° C.;
# (§3) Incubation Buffer: 50 mM Tris-HCl, pH 7.4, 100 mM NaCl, 1 μM Leupeptin, 10 μM PMSF;
# Non-Specific Ligand: 10.0 μM Desipramine;
# (§4) Quantitation Method: Radioligand Binding;
# [2] = 14-day once-a-day oral multiple ascending dose PK study, day-14 data; format: in vivo, human; details: for Cmax: read-out: Formula I plasma concentration (Cmax); for concentration at 0 h: day 14, blood draw at 0 h (pre-dose trough)
# Method: (§1) A LC-MS/MS method was developed and validated for the quantitation of Formula I in 0.250 mL of human EDTA plasma in a total of 7 runs, out of which 1 run was rejected. The method utilized stable labeled Formula I as an internal standard. After the addition of the internal standard (equivalent to 285.4 ng/mL in human EDTA plasma) and 0.250 mL of each quality control (QC) sample and calibration standard, 0.525 mL of methyl t-butyl ether (MTBE) was added to the 96-well sample tubes. The organic layer was removed and evaporated to dryness using a liquid-liquid extraction (LLE). The residue was reconstituted and injected into the LC-MS/MS system. Chromatographic separation was achieved through gradient elution on an Acquity UPLC, BEH Shield RP18™, 50×2.1 mm, 1.7 μm particle size column. The mobile phase contained water, acetonitrile, ammonium formate, and formic acid. Detection was accomplished using a Sciex API 4000 tandem mass spectrometer in positive ion electrospray SRM mode. The standard curves, which ranged from 1.00 to 1000 ng/mL for Formula I, were fitted to a 1/×2 weighted linear regression model. The intra-assay precisions, based on four levels of analytical QCs (low, mid, GM, and high), were within 4.2% CV and inter-assay precisions were within 7.2% CV for the analyte. The assay accuracy, expressed as % DEV, was within 6.4% of the nominal concentration values for the analyte. […] The LLOQ response ratio, when compared to the QCO response ratio, was >, 5 in all matrix lots. The analyte was stable in human EDTA plasma for at least 24 h at room temperature, for at least 14 days at −20° C., and following at least 3 freeze-thaw cycles. The processed samples were stable for 72 hours (h) at room temperature.
# Tabulated, day-14 PK data (Cmax, Ctrough and AUC) for healthy humans in a 14-day, once-a-day oral dosing, multiple ascending dose study of compound of Formula I.
# [3] = Plasma concentration of Formula I at midpoint time of post dosing PET scans; format: in vivo; details: male, human; for concentration at 24 h: day 14, 24 h post last dose
# Source text: In alternative embodiments, provided are methods comprising administering a drug in an amount sufficient to achieve a therapeutic level range of plasma concentration (optionally human plasma concentration) at a steady state, and this example describes an exemplary analytical method to determine the concentration of Formula I in human plasma using an LC-MS-MS method known to the people skilled in the art, and an exemplary bioanalysis method to determine the concentration of formula I in human EDTA plasma.
# as §1
# (§2) Striatal receptor occupancy at dopamine transporters (DAT) and serotonin transporters (SERT) with plasma concentrations of Formula I at the midpoint time of the post dosing PET (positron emission tomography) scans (T=4 and 24) after once-a-day multiple doses of 3-60 mg and 10-60 mg for SERT and DAT healthy male cohorts, respectively (Tables below, RO stands for receptor occupancy). Post dosing PET scans were conducted at day 10 (4 h post last dose) and day 14 (24 h post last dose) assuming steady state conditions, using the specific DAT and SERT tracers ^11C-PE2I and ^11C-MADAM, respectively. For 45 mg and 60 mg cohorts, there was titration by administration of 30 mg for 3 days and then from day 4 the specified dose. Representative reports on using these two tracers are Leamed-Coughlin S M et al, Biol Psychiatry. 2003, 54(8):800-5; Jucaite A et al, Eur J Nucl Med Mol Imaging. 2006, 33(6):657-68; and Lundberg J et al, Int J Neuropsychopharmacol. 2007, 10(6):777-85.
# [4] = target: Transporter, Dopamine (DAT) (Homo sapiens, UniProt Q01959); test: DAT radioligand binding ([125I] RTI-55), Eurofins; details: read-out: DAT, % inhibition, 10 nM compound
# Method: Source: Human recombinant CHO—S cells;
# Incubation Time/Temp: 3 hours @ 4° C.;
# as §3
# Non-Specific Ligand: 10.0 μM Nomifensine;
# Specific Binding: 90% (Historical Values);
# as §4
# [5] = target: T1, serotonin transporters (SERT) (Homo sapiens, UniProt P31645); test: PET study of SERT occupancy with 11C-MADAM in healthy male volunteers; format: in vivo; details: read-out: SERT RO %; for receptor occupancy at 10 mg: 10 mg once a day; for receptor occupancy at 30 mg: 30 mg once a day; for receptor occupancy at 45 mg: 45 mg once a day (30 mg for 3 days first); for receptor occupancy at 60 mg: 60 mg once a day (30 mg for 3 days first)
# T1 construct: evaluate in healthy male volunteers with respect to safety, tolerability and pharmacokinetics as well as DAT and SERT occupancy; from tissue; host or cells: living human brain (striatum, thalamus), PET in healthy male volunteers
# Source text: The PET study was a part of a strategy in previous clinical development of the compound of formula I to evaluate in healthy male volunteers with respect to safety, tolerability and pharmacokinetics as well as DAT and SERT occupancy.
# The relationship between plasma the compound of formula I concentration and SERT occupancies, using the individual values, is presented in FIG. 8 and FIG. 9. The numeric values for the individual SERT and […] occupancy and the corresponding plasma concentrations are tabulated in Example 12.
# as §2
# [6] = Stability of Formula I in human EDTA plasma (LC-MS/MS validation); format: in vitro ADME
# Method: as §1
# [7] = 24 h, day 14, 24 h post last dose
# T1 sequence (P31645 whole entry): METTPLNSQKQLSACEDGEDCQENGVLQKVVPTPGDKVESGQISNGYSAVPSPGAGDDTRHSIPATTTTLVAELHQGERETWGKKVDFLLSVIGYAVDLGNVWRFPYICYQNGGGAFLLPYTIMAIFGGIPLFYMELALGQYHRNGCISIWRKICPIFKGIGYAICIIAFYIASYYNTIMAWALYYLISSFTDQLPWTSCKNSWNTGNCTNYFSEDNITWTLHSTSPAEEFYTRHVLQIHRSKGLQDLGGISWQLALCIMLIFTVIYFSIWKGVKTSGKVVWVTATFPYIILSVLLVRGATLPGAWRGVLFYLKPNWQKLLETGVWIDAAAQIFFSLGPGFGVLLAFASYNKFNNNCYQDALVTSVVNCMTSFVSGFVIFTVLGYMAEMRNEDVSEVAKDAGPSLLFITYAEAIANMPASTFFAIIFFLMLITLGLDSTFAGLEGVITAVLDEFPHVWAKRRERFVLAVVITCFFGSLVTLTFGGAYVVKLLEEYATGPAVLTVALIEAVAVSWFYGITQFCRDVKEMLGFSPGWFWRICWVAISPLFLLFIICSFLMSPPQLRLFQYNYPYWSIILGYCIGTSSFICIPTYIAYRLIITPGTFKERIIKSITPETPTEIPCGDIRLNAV
# Chain of Transporter, Norepinephrine (NET) (P23975 whole entry): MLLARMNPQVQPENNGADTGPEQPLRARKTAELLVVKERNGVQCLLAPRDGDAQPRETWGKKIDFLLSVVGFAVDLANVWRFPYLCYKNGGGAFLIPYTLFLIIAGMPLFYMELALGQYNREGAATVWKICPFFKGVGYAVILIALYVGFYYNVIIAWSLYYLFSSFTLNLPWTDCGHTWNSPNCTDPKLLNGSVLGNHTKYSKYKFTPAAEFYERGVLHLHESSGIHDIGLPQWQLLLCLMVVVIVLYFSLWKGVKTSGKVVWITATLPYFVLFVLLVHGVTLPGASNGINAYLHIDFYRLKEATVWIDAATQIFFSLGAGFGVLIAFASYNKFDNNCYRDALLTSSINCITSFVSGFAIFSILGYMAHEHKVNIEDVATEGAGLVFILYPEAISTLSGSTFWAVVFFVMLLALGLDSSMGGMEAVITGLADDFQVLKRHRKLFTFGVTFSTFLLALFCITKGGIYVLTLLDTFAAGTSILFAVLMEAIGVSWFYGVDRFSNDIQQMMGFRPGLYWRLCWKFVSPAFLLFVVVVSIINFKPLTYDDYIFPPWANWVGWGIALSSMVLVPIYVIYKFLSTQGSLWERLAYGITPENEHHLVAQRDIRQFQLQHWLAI
# Chain of Transporter, Dopamine (DAT) (Q01959 whole entry): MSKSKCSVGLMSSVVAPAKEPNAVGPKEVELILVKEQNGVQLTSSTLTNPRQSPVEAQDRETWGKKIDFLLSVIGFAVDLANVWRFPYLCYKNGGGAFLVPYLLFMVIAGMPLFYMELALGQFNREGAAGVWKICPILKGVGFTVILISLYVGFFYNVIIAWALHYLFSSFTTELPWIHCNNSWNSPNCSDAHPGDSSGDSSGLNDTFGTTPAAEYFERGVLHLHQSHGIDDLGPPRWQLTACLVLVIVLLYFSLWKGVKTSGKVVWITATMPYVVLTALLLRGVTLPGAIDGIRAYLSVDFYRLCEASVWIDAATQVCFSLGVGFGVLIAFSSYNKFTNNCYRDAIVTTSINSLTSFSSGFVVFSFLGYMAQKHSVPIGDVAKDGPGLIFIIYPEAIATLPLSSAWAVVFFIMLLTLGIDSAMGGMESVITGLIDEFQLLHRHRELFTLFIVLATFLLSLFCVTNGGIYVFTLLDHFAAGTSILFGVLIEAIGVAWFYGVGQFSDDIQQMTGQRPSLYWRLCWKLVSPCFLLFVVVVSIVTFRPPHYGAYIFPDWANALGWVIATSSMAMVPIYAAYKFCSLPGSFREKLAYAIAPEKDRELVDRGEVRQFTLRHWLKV
smiles,measurement,setting,value
"Clc1ccc(C2CNCc3cc(-c4ccc5ncnn5c4)ccc32)cc1Cl (stereo not drawn) [Formula I, 7-([1,2,4]triazolo[1,5-a]pyridin-6-yl)-4-(3,4-dichlorophenyl)-1,2,3,4-tetrahydroisoquinoline]",inhibition at 0.01 µM,[1],35%
same,Formula I plasma concentration,"[2]; 3 mg daily, male, day 14, draw at about 23-24 h (Ctrough)",42 ng/mL
same,Cmax,"[2]; female, human, plasma, oral, 45 mg, 45 mg daily, day 14, draw flagged Cmax (1-3 h)",1680 ng/mL
same,concentration at 0 h,"[2]; female, human, plasma, oral, 45 mg, 45 mg daily, female, read-out: Formula I plasma concentration",997 ng/mL
same,concentration at 24 h,"[2]; female, human, plasma, oral, 45 mg, 45 mg daily, female, day 14, draw at about 24 h (Ctrough), read-out: Formula I plasma concentration",901 ng/mL
same,AUC,"[2]; female, human, plasma, oral, 45 mg, 45 mg daily, female, day 14, printed in the 24 h draw line",10100 ng·h/mL
same,concentration at 0 h,"[2]; male, human, plasma, oral, 3 mg, 3 mg daily, male, read-out: Formula I plasma concentration",42 ng/mL
same,Cmax,"[2]; male, human, plasma, oral, 3 mg, 3 mg daily, male, day 14, draw flagged Cmax (1-3 h)",66 ng/mL
same,AUC,"[2]; male, human, plasma, oral, 3 mg, 3 mg daily, male, day 14, printed in the 23-24 h draw line",439 ng·h/mL
same,Cmax,"[2]; male, human, plasma, oral, 10 mg, 10 mg daily, day 14, draw flagged Cmax (1-3 h)",218 ng/mL
same,concentration at 0 h,"[2]; male, human, plasma, oral, 10 mg, 10 mg daily, male, read-out: Formula I plasma concentration",125 ng/mL
same,AUC,"[2]; male, human, plasma, oral, 10 mg, 10 mg daily, male, day 14, printed in the 23-24 h draw line",1260 ng·h/mL
same,Cmax,"[2]; male, human, plasma, oral, 45 mg, 45 mg daily, day 14, draw flagged Cmax (1-2 h)",1150 ng/mL
same,concentration at 0 h,"[2]; male, human, plasma, oral, 45 mg, 45 mg daily, male, read-out: Formula I plasma concentration",635 ng/mL
same,concentration at 23 h,"[2]; male, human, plasma, oral, 45 mg, 45 mg daily, male, day 14, draw at 23 h (Ctrough), read-out: Formula I plasma concentration",672 ng/mL
same,AUC,"[2]; male, human, plasma, oral, 45 mg, 45 mg daily, male, day 14, printed in the 23 h draw line",6280 ng·h/mL
same,concentration at 4 h,"[3]; 3 mg, SERT cohort, 3 mg once a day, day 10, 4 h post dose",68 ng/mL
same,concentration at 24 h,"[3]; 3 mg, SERT cohort, 3 mg once a day",52 ng/mL
same,concentration at 4 h,"[3]; 10 mg, DAT cohort, 10 mg once a day, day 10, 4 h post dose",204 ng/mL
same,concentration at 24 h,"[3]; 10 mg, DAT cohort, 10 mg once a day",141 ng/mL
same,concentration at 4 h,"[3]; 10 mg, SERT cohort, 10 mg once a day, day 10, 4 h post dose",201 ng/mL
same,concentration at 24 h,"[3]; 10 mg, SERT cohort, 10 mg once a day",127 ng/mL
same,concentration at 4 h,"[3]; 30 mg, SERT cohort, 30 mg once a day, day 10, 4 h post dose",691 ng/mL
same,concentration at 24 h,"[3]; 30 mg, SERT cohort, 30 mg once a day",668 ng/mL
same,concentration at 4 h,"[3]; 45 mg, DAT cohort, 45 mg once a day (30 mg for 3 days first), day 10, 4 h post dose",809 ng/mL
same,concentration at 24 h,"[3]; 45 mg, DAT cohort, 45 mg once a day (30 mg for 3 days first)",647 ng/mL
same,concentration at 4 h,"[3]; 45 mg, SERT cohort, 45 mg once a day (30 mg for 3 days first), day 10, 4 h post dose",1160 ng/mL
same,concentration at 24 h,"[3]; 45 mg, SERT cohort, 45 mg once a day (30 mg for 3 days first)",940 ng/mL
same,concentration at 4 h,"[3]; 60 mg, DAT cohort, 60 mg once a day (30 mg for 3 days first), day 10 (subject 77: day 11), 4 h post dose",1340 ng/mL
same,concentration at 24 h,"[3]; 60 mg, DAT cohort, 60 mg once a day (30 mg for 3 days first)",920 ng/mL
same,inhibition at 0.01 µM,[4],47%
same,receptor occupancy at 10 mg,"[5]; 4 h, day 10, 4 h post dose",53%
same,receptor occupancy at 30 mg,"[5]; 4 h, day 10, 4 h post dose",71%
same,receptor occupancy at 45 mg,"[5]; 4 h, day 10, 4 h post dose",73%
same,receptor occupancy at 60 mg,"[5]; 4 h, day 10, 4 h post dose",70%
same,receptor occupancy at 10 mg,[5]; [7],47%
same,receptor occupancy at 30 mg,[5]; [7],69%
same,receptor occupancy at 45 mg,[5]; [7],73%
same,receptor occupancy at 60 mg,[5]; [7],76%
same,stable in human EDTA plasma,[6]; freeze-thaw,at least 3 freeze-thaw cycles
same,stable in human EDTA plasma,[6]; room temperature,at least 24 h
same,stable in human EDTA plasma,[6]; −20° C.,at least 14 days
